Laboratory results from ChEMBL document CHEMBL5291721, “A preclinical secondary pharmacology resource illuminates target-adverse drug reaction associations of marketed drugs” (Nat Commun, 2023).

How the values were obtained:
[1] = biological target: T1, Amine oxidase [flavin-containing] A (Homo sapiens, UniProt P21397); type: functional
T1 sequence (P21397 whole entry): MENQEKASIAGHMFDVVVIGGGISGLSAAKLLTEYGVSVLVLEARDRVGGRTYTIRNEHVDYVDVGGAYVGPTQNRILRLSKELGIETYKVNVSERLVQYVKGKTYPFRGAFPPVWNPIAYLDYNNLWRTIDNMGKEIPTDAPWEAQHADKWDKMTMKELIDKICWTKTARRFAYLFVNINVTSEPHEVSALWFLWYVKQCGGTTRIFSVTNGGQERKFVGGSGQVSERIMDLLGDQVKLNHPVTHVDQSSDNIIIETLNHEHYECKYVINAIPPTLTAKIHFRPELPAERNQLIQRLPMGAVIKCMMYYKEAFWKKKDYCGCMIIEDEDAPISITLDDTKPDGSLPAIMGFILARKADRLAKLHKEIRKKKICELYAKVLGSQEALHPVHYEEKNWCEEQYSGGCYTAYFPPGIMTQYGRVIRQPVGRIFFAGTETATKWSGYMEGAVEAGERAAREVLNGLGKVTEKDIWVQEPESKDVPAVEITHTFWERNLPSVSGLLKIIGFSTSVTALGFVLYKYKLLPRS

Thromboxane A2 receptor = biological target: T2, Thromboxane A2 receptor (Homo sapiens, UniProt P21731); type: functional, cell-based
T2 sequence (P21731 whole entry): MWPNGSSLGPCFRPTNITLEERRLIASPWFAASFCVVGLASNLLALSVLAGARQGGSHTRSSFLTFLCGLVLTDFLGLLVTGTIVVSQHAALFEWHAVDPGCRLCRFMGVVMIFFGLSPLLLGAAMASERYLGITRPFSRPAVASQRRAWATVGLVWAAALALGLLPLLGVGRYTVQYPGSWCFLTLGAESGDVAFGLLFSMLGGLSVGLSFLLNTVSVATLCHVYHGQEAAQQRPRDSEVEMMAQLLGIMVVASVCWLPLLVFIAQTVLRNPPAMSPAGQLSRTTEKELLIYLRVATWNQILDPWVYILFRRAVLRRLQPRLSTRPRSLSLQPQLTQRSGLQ

[2] = biological target: T3, Muscarinic acetylcholine receptor M2 (Homo sapiens, UniProt P08172)
T3 sequence (P08172 whole entry): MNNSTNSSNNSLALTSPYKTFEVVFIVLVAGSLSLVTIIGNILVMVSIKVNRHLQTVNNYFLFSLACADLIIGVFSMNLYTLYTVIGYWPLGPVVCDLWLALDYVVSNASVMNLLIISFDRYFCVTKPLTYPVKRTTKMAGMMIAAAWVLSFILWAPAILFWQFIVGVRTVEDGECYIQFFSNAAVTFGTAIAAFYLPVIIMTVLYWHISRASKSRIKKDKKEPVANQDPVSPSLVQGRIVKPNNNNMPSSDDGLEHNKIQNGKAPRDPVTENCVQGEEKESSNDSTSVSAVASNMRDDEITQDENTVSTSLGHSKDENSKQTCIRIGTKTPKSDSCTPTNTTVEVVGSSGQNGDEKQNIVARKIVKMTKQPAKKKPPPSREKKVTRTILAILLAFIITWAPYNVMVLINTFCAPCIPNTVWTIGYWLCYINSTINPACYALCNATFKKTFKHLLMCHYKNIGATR

[3] = biological target: T4, Alpha-1A adrenergic receptor (Homo sapiens, UniProt P35348); type: functional, cell-based
T4 sequence (P35348 whole entry): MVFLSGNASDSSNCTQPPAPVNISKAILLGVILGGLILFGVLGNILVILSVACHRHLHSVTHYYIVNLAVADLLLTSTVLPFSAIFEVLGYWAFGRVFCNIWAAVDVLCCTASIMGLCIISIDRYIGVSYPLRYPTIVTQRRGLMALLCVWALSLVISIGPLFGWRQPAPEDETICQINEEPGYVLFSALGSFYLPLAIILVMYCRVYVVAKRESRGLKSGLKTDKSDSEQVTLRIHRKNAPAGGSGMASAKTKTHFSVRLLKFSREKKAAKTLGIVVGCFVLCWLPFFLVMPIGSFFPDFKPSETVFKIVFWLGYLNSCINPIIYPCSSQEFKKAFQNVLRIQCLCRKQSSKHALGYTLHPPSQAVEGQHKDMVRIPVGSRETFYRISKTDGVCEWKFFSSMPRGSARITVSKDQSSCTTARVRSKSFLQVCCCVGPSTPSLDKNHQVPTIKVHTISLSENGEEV

[4] = biological target: Vascular endothelial growth factor receptor 2 (Homo sapiens, UniProt P35968); type: functional
[5] = biological target: Prostaglandin G/H synthase 1 (Homo sapiens, UniProt P23219); type: functional
Sequence of Prostaglandin G/H synthase 1 (P23219 whole entry): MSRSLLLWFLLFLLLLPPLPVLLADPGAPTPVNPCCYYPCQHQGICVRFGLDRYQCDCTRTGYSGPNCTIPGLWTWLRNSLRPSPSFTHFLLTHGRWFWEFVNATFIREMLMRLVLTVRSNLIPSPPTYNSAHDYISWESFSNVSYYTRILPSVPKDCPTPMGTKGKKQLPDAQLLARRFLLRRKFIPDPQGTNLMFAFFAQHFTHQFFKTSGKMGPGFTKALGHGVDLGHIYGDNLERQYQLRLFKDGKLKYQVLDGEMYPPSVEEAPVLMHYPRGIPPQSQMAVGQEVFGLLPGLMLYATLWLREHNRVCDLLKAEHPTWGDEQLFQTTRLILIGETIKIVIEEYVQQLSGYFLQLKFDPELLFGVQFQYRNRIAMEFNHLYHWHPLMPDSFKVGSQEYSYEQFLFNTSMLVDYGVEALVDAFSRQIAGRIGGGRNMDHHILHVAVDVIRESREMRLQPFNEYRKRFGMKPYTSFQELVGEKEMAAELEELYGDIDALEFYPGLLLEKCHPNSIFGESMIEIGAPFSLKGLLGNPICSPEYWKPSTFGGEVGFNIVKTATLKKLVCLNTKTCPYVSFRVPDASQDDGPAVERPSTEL

[6] = biological target: Sodium-dependent dopamine transporter (Homo sapiens, UniProt Q01959)
Sequence of Sodium-dependent dopamine transporter (Q01959 whole entry): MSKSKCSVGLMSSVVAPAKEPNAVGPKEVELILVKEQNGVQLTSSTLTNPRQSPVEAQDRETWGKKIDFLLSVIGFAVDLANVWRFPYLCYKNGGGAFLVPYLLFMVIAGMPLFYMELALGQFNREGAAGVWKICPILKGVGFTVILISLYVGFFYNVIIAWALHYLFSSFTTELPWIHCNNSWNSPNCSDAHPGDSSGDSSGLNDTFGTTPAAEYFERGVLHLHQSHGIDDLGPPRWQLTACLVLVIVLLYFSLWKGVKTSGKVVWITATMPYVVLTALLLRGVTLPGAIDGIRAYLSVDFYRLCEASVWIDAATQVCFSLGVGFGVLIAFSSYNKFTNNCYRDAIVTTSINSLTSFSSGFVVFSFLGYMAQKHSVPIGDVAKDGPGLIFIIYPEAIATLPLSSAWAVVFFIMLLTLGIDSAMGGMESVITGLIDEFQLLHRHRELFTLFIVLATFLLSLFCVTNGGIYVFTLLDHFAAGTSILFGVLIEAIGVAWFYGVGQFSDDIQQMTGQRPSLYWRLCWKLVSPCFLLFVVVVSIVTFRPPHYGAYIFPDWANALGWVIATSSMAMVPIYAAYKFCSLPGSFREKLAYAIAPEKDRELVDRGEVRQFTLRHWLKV

[7] = biological target: Voltage-gated inwardly rectifying potassium channel KCNH2 (Homo sapiens, UniProt Q12809); type: functional; settings: read-out: AC50
Sequence of Voltage-gated inwardly rectifying potassium channel KCNH2 (Q12809 whole entry): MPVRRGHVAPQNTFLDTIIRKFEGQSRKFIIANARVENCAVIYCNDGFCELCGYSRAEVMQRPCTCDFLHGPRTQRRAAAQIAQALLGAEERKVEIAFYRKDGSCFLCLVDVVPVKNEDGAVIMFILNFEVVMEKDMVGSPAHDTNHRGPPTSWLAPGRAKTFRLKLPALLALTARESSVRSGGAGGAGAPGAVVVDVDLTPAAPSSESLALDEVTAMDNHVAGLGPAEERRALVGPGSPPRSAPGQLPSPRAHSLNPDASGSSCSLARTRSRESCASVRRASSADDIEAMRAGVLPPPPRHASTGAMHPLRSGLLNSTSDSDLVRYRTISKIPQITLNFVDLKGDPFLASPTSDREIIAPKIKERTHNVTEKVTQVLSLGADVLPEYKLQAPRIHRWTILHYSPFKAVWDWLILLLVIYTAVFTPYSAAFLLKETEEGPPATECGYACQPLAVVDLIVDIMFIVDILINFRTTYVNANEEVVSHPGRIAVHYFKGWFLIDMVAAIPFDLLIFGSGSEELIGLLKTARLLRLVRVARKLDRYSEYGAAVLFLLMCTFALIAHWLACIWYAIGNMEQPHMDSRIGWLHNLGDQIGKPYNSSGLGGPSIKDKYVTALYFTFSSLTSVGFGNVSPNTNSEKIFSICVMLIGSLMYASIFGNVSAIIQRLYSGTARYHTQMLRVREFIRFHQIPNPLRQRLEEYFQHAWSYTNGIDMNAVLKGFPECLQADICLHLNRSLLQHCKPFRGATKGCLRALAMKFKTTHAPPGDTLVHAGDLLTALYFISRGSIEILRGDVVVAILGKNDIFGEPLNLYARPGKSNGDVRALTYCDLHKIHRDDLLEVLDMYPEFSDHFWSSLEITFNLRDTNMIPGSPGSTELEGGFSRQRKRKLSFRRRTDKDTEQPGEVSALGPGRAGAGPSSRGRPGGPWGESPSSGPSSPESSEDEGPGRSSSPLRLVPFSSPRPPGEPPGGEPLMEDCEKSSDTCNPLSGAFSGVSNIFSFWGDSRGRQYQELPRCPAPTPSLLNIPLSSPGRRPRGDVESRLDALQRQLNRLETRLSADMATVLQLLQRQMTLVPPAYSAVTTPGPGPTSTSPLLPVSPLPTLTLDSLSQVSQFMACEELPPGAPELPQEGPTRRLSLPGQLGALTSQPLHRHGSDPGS

[8] = biological target: T5, Alpha-2A adrenergic receptor (Homo sapiens, UniProt P08913)
T5 sequence (P08913 whole entry): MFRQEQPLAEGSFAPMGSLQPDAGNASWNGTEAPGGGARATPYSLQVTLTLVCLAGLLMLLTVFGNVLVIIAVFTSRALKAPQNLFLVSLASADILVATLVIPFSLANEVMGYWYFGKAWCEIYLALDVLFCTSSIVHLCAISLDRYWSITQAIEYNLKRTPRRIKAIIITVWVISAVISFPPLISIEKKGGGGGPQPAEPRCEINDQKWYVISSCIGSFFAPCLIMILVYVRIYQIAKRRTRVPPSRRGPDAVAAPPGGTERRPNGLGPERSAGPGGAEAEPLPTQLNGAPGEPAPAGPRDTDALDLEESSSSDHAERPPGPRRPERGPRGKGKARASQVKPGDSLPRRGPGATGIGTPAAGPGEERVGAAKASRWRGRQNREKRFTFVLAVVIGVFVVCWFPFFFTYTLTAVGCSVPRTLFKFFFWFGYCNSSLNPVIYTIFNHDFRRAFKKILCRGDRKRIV

[9] = biological target: 3',5'-cyclic-AMP phosphodiesterase 4A (Homo sapiens, UniProt P27815); type: functional
Sequence of 3',5'-cyclic-AMP phosphodiesterase 4A (P27815 whole entry): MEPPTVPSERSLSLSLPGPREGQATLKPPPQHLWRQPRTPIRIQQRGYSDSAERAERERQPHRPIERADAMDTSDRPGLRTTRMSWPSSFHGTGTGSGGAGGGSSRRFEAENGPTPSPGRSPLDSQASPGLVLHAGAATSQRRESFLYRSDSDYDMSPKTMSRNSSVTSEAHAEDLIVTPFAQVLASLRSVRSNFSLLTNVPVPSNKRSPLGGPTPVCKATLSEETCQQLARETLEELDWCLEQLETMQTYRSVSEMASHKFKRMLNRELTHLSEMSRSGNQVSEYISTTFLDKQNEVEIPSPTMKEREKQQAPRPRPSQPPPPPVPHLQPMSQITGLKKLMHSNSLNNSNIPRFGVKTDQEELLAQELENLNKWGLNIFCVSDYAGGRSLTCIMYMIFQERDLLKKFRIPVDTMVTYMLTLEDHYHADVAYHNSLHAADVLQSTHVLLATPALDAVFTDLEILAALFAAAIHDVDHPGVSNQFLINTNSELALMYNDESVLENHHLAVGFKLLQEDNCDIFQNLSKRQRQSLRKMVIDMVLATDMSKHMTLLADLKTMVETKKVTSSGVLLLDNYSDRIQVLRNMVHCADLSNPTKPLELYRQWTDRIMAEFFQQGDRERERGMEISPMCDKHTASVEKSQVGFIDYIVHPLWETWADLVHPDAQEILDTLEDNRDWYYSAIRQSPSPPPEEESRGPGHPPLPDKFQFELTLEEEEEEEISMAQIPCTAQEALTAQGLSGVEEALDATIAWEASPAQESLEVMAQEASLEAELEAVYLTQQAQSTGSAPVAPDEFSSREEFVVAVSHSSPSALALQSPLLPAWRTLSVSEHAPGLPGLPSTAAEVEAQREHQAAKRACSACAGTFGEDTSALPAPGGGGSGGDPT

[10] = biological target: cGMP-inhibited 3',5'-cyclic phosphodiesterase 3A (Homo sapiens, UniProt Q14432); type: functional
Sequence of cGMP-inhibited 3',5'-cyclic phosphodiesterase 3A (Q14432 whole entry): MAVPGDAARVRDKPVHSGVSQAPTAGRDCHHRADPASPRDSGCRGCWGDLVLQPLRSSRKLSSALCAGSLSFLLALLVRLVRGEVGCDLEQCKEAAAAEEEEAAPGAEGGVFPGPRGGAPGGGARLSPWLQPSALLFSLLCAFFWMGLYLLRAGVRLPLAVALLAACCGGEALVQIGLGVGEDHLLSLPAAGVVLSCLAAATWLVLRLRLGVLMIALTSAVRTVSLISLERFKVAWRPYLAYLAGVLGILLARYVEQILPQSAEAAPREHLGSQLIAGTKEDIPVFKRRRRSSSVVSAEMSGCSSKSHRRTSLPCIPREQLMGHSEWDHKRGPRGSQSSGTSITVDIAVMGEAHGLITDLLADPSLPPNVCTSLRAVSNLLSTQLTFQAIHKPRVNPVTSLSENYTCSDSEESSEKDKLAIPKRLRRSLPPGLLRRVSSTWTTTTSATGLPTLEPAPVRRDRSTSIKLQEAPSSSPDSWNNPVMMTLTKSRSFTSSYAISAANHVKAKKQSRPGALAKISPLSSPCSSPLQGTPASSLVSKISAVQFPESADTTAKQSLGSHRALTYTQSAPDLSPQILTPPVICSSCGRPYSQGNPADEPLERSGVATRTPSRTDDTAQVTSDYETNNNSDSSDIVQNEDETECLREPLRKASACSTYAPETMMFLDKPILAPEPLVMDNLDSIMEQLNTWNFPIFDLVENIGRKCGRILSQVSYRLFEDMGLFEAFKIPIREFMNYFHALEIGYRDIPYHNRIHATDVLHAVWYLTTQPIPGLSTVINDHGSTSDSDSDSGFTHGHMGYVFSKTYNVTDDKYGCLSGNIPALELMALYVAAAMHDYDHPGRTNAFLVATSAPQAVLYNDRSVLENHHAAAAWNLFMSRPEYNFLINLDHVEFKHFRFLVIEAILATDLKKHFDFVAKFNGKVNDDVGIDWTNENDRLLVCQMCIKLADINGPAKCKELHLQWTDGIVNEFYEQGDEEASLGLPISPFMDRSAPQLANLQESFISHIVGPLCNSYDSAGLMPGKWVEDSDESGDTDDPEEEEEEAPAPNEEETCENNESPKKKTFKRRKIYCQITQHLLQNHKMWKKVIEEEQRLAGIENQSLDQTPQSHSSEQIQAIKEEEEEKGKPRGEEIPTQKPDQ
Further: assay procedure not described here.

SMILES | AC50 [1] [µM] | AC50 (Thromboxane A2 receptor) [µM] | AC50 [2] [µM] | AC50 [3] [µM] | AC50 [4] [µM] | AC50 [5] [µM] | AC50 [6] [µM] | AC50 [7] [µM] | AC50 [8] [µM] | AC50 [9] [µM] | AC50 [10] [µM]
CC(=O)Oc1c(C)c(C)c2c(c1C)CC[C@@](C)(CCC[C@H](C)CCC[C@H](C)CCCC(C)C)O2 | > 30 | > 30 | > 30 | > 30 | > 30 | > 30 | > 30 | > 30 | > 30 | 9.38 | 0.933
CC[C@@H](C(N)=O)N1CCCC1=O | > 30 | > 30 | > 30 | > 30 | > 30 | > 30 | > 30 | > 30 | > 30 | > 30 | > 30
N=C1CCCN1Cc1[nH]c(=O)[nH]c(=O)c1Cl | > 30 | > 30 | > 30 | > 30 | > 30 | > 30 | > 30 | > 30 | > 30 | > 30 | > 30
CC(=O)[C@@]1(O)CC[C@H]2[C@@H]3C=C(C)C4=CC(=O)CC[C@]4(C)[C@H]3CC[C@@]21C | > 30 | > 30 | > 30 | > 30 | > 30 | > 30 | > 30 | > 30 | > 30 | > 30 | > 30
CCOC(=O)[C@H](CCc1ccccc1)N[C@@H](C)C(=O)N1CC2(C[C@H]1C(=O)O)SCCS2 | > 30 | > 30 | > 30 | > 30 | > 10 | > 30 | > 30 | > 30 | > 30 | > 30 | > 30
CC(=O)c1ccc2c(c1)N(CCCN(C)C)c1ccccc1S2 [ACEPROMAZINE] | > 30 | 13.7 | 0.204 | 0.003 | > 30 | > 30 | 19.5 | 2.5 | 0.418 | > 30 | > 30
C[S+](CC[C@H](N)C(=O)[O-])C[C@H]1O[C@@H](n2cnc3c(N)ncnc32)[C@H](O)[C@@H]1O (stereo partly drawn) [ADEMETIONINE] | > 30 | > 30 | > 30 | > 30 | 19.4 | > 30 | > 30 |  | > 30 | > 30 | > 30
Nc1ccncc1N [AMIFAMPRIDINE] | > 30 | > 30 | > 30 | > 30 | > 30 | > 30 | > 30 | > 30 | > 30 | > 30 | > 30
NC(=O)C[C@H](N)C(=O)O [ASPARAGINE] | > 30 | > 30 | > 30 | > 30 | > 30 | > 30 | > 30 |  | > 30 | > 30 | > 30
CC1=C(/C=C/C(C)=C/C=C/C(C)=C/C=C/C=C(C)/C=C/C=C(C)/C=C/C2=C(C)CCCC2(C)C)C(C)(C)CCC1 [BETA CAROTENE] | > 30 | > 30 | > 30 | > 30 | > 30 | 8.1 | > 30 |  | > 30 | > 30 | > 30
C=CCN1C[C@H](C(=O)N(CCCN(C)C)C(=O)NCC)C[C@@H]2c3cccc4[nH]cc(c34)C[C@H]21 [CABERGOLINE] | > 30 | > 30 | > 30 |  | > 30 | > 30 | 4.64 | 7.68 |  | > 30 | > 30
CC(C)C[C@H]1C(=O)N2CCC[C@H]2[C@]2(O)O[C@](NC(=O)[C@@H]3C[C@@H]4c5cccc6[nH]cc(c56)C[C@H]4N(C)C3)(C(C)C)C(=O)N12 [DIHYDROERGOCRYPTINE] | > 30 | > 30 | > 30 |  | > 30 | 18.4 | > 30 | > 30 | 0.847 | > 30 | > 30
COc1ccc(C(=O)Nc2ccccc2CCC2CCCCN2C)cc1 (stereo not drawn) [ENCAINIDE] | > 30 | > 30 | > 30 | > 30 | > 30 | > 30 | > 30 |  | > 30 | > 30 | > 30
NC1=NCC2c3ccccc3Cc3ccccc3N12 (stereo not drawn) [EPINASTINE] | > 30 | > 30 | > 30 | 2.53 | > 30 | > 30 | > 30 |  | 0.253 | > 30 | > 30
COc1ccc2c(c1)N(C[C@H](C)CN(C)C)c1ccccc1S2 [LEVOMEPROMAZINE] | > 30 | 26 | 1.68 |  | > 30 | 11.3 |  | 11 |  | > 30 | > 30
Cc1cc(OP(=O)(O)O)c2ccccc2c1OP(=O)(O)O [MENADIOL SODIUM DIPHOSPHATE] | > 30 | > 30 | > 30 | > 30 | > 30 | > 30 | > 30 |  | > 30 | > 30 | > 30
Nc1ccc2cc3ccc(N)cc3nc2c1 [PROFLAVINE] | 0.786 |  | 2.61 |  | 25.8 | 22.1 | 5.16 | 5 | 7.27 | > 30 | > 30
